Key:
[1] = Toxicokinetics in the 28 day dog study of DIO-902 (with racemic ketoconazole group a); details: beagle, plasma, po, dogs; for concentration at 8 h / concentration at 12 h / concentration at 0 h / concentration at 1 h / concentration at 2 h / concentration at 4 h: Drug concentration in plasma; for Tmax: Tmax Range; for AUC(0-t): AUC(0-12);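 as to all read-outs here: beagle dogs dosed orally once daily within a 28-day GLP study, 3 animals per sex per group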
Salmonella typhimurium = assay: Ames assay; details: five histidine requiring strains
P450 2C6 = P450 2C6 (Rattus norvegicus, UniProt P05178); details: Rotstein et al. 1992; read-out: IC50, progesterone 21 hydroxylase (2C6); cited from earlier work
[2] = female, 20 mg/kg, 20 mg/kg oral, day 28, F
[3] = male, 2 mg/kg, 2 mg/kg oral, day 28, M
[4] = male, 2 mg/kg, 2 mg/kg oral, day 1, M
[5] = male, 6.5 mg/kg, 6.5 mg/kg oral, day 28, M
[6] = male, 6.5 mg/kg, 6.5 mg/kg oral, day 1, M
[7] = male, 20 mg/kg, 20 mg/kg oral, day 1, M
[8] = male, 20 mg/kg, 20 mg/kg oral, day 28, M

Sequence of P450 2C6 (P05178 whole entry): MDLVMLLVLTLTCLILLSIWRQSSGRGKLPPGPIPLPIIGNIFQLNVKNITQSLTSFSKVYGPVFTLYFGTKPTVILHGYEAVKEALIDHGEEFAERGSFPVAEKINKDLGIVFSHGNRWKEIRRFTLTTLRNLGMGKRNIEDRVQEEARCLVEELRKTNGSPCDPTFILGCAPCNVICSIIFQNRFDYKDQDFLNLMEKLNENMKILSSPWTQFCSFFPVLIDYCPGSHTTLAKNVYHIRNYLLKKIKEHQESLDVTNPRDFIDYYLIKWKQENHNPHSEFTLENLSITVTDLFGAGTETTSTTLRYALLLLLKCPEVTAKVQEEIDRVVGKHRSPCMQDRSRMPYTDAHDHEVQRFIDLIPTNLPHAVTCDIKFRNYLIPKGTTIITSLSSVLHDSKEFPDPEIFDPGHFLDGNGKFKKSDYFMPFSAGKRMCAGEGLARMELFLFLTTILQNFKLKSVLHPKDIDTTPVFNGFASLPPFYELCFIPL

CC(=O)N1CCN(c2ccc(OC[C@@H]3CO[C@@](Cn4ccnc4)(c4ccc(Cl)cc4Cl)O3)cc2)CC1 [DIO-902, 2S,4R cis-1-acetyl-4-[4-[[2-(2,4-dichlorophenyl)-2-(1H-imidazol-1-ylmethyl)-1,3-dioxolan-4-yl]methoxyl]phenyl]piperazine]
concentration at 8 h [1, 2]: 9830 ng/mL | concentration at 12 h [1, 2]: 6530 ng/mL | Tmax ([1]; female, 20 mg/kg, 20 mg/kg oral, day 1, F): 4 to 8 h | Tmax [1, 2]: 8 to 12 h | AUC(0-t) ([1]; male, 2 mg/kg, 2 mg/kg oral, day 1, M, n = 1): 2390 ng·h/mL | AUC(0-t) [1, 3]: 3260 ng·h/mL | Cmax [1, 4]: 510 ng/mL | Cmax [1, 3]: 680 ng/mL | concentration at 0 h [1, 4]: < 250 ng/mL | concentration at 1 h [1, 4]: 400 ng/mL | concentration at 2 h [1, 4]: 450 ng/mL | concentration at 4 h [1, 4]: < 250 ng/mL | concentration at 8 h [1, 4]: < 250 ng/mL | concentration at 12 h [1, 4]: < 250 ng/mL | concentration at 0 h [1, 3]: < 250 ng/mL | concentration at 1 h [1, 3]: 660 ng/mL | concentration at 2 h [1, 3]: 540 ng/mL | concentration at 4 h [1, 3]: 380 ng/mL | concentration at 8 h [1, 3]: < 250 ng/mL | concentration at 12 h [1, 3]: < 250 ng/mL | Tmax [1, 4]: 1 to 2 h | Tmax [1, 3]: 1 to 4 h | AUC(0-t) ([1]; male, 6.5 mg/kg, 6.5 mg/kg oral, day 1, M, n = 2): 12200 ng·h/mL | AUC(0-t) [1, 5]: 14600 ng·h/mL | Cmax [1, 6]: 2000 ng/mL | Cmax [1, 5]: 2010 ng/mL | concentration at 0 h [1, 6]: < 250 ng/mL | concentration at 1 h [1, 6]: 1190 ng/mL | concentration at 2 h [1, 6]: 1620 ng/mL | concentration at 4 h [1, 6]: 1250 ng/mL | concentration at 8 h [1, 6]: 410 ng/mL | concentration at 12 h [1, 6]: 400 ng/mL | concentration at 0 h [1, 5]: < 250 ng/mL | concentration at 1 h [1, 5]: 1170 ng/mL | concentration at 2 h [1, 5]: 1390 ng/mL | concentration at 4 h [1, 5]: 1540 ng/mL | concentration at 8 h [1, 5]: 1330 ng/mL | concentration at 12 h [1, 5]: 880 ng/mL | Tmax [1, 6]: 1 to 4 h | Tmax [1, 5]: 1 to 8 h | AUC(0-t) [1, 7]: 60600 ng·h/mL | AUC(0-t) [1, 8]: 80000 ng·h/mL | Cmax [1, 7]: 9380 ng/mL | Cmax [1, 8]: 9940 ng/mL | concentration at 0 h [1, 7]: < 250 ng/mL | concentration at 1 h [1, 7]: 7050 ng/mL | concentration at 2 h [1, 7]: 8300 ng/mL | concentration at 4 h [1, 7]: 6150 ng/mL | concentration at 8 h [1, 7]: 2920 ng/mL | concentration at 12 h [1, 7]: 6740 ng/mL | concentration at 0 h [1, 8]: 1190 ng/mL | concentration at 1 h [1, 8]: 9130 ng/mL | concentration at 2 h [1, 8]: 9780 ng/mL | concentration at 4 h [1, 8]: 8170 ng/mL | concentration at 8 h [1, 8]: 5860 ng/mL | concentration at 12 h [1, 8]: 4250 ng/mL | Tmax [1, 7]: 1 to 4 h | Tmax [1, 8]: 2 to 4 h | genotoxicity, Ames assay (Salmonella typhimurium): negative | IC50 (P450 2C6): 9 µM
